Holding throughout (assay): NCI tumour cell line growth inhibition, 48 h
The test system of test [1] is HCT-15 colon.
The test system of test [2] is SK-MEL-28 melanoma.
Test [3] relates to SF-539 CNS.
In test [4] the test system is HOP-62 NSCLC.
Test [5] deals with HT29 colon.
Test [6] has as its system TK-10 renal.
In test [7] the test system is HL-60(TB) leukemia.
The subject of test [8] is IGROV1 ovarian.
The test system of test [9] is CAKI-1 renal.
In test [10] the test system is SK-OV-3 ovarian.

Values joined by “and” are separate entries in the source; they are usually repeats but may differ in a detail not shown here. Equal entries are not always repeated.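 Method: 48-hour compound exposure of cells in 96-well plates, five concentrations, linear interpolation of endpoints. GI50 = concentration required for 50% inhibition of growth. TGI marks complete inhibition of growth.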 Some results are limits rather than exact numbers.

For 18 compounds, GI50 and TGI results are on record in PubChem BioAssay (NCI).

As for `Brc1ccc2c(c1)-c1ccccc1C1=NCCN12`, the GI50 in test [1] was 0.68 µM; in test [2], 1.8 µM; in [3], 1.63 µM; in [4], 0.962 µM; in test [5], 0.478 µM; in [6] it was 1.5 µM. Also, the GI50 in test [7] is 2.45 µM; in test [8] it was 1.61 µM; in test [9], 1.52 µM; in test [10] it was 2.88 µM. Also, the TGI stood at 10.8 µM in test [1]; 3.63 µM in test [2]; 4.38 µM in test [3]; 8.02 µM in [4]; 3.33 µM in test [5]; 7.18 µM in [6]. Besides, the TGI in test [7] was determined as 5.65 µM; in test [8], 11.2 µM; in [9], 7.92 µM; in test [10] it was 16.6 µM.
As for `O=C(/C=C/c1ccc(OCC(=O)N2CCN(c3ccccc3)CC2)cc1)c1ccccc1`, the TGI was above 100 µM in [1]; 54.5 µM in test [2]; 46.8 µM in test [3]; above 100 µM in [4]; above 100 µM in test [5]; above 79.4 µM in [6]. Besides, the TGI was 30.8 µM in [7], above 100 µM in test [8], above 100 µM in test [9] and above 100 µM in test [10].
For `Cn1c(=O)c(Oc2ccc(F)cc2F)cc2cnc(NC3CCC(O)CC3)nc21` (stereo not drawn), the GI50 is above 25 µM in [1]; above 25 µM in [2]; above 25 µM in test [3]; above 25 µM in test [4]; above 25 µM in [5]; 24.6 µM in test [6]. The GI50 in test [7], in [8], in test [9] and in [10] was above 25 µM each time. In addition, the TGI in [1], in test [2], in test [3], in [4], in test [5] and in test [6] was above 25 µM throughout. The TGI in test [7], in test [8], in test [9] and in test [10] was above 25 µM throughout.
For the compound `COC(=O)C1=C(C)C(=O)C2(CCCCCC2C(=O)OC)C1` (stereo not drawn), the TGI in test [1], in test [2], in [3], in [4], in [5] and in test [6] was above 100 µM throughout. Further, the TGI in [7], in test [8], in [9] and in test [10] was above 100 µM throughout.
Take `COc1cc2nccc(Oc3ccc(NC(=O)C4(C(=O)Nc5ccc(F)cc5)CC4)cc3)c2cc1OC`: the GI50 in test [1] is > 10 µM and 3.94 µM; in [2], > 10 µM and 3.74 µM; in test [3], 1.13 µM and 1.42 µM; in [4] it was > 10 µM and 5.6 µM; in [5] it was 7.71 µM and 2.74 µM; in test [6] it was > 10 µM and 3.76 µM. Further, the GI50 is > 10 µM and 3.87 µM in test [7]; 4.51 µM and 2.59 µM in [8]; 5.87 µM and 3.61 µM in test [9]; > 10 µM and 5.83 µM in test [10]. Moreover, the TGI is above 100 µM in test [1]; above 79 µM in [2]; > 10 µM and 12.2 µM in test [3]; above 45.3 µM in test [4]; > 10 µM and 20.4 µM in test [5]; > 10 µM and 39.5 µM in test [6]. The TGI was > 10 µM and 21.6 µM in test [7]; above 31 µM in test [8]; > 10 µM and 40.9 µM in test [9]; > 10 µM and 42.3 µM in test [10].
Take `CCc1c[nH]c2ncnc(N3CC[C@](N)(CNC(=O)c4ccc(F)cc4F)C3)c12`: the GI50 in [1] was 15.5 µM; in test [2], 7.46 µM; in [3], 0.381 µM; in test [4] it was 12.8 µM; in test [5], 3.1 µM; in test [6] it was 1.27 µM. The GI50 in [7] was 56.2 µM; in test [8], 0.207 µM; in test [9], 8.62 µM; in test [10], 0.973 µM. For the same compound, the TGI in [1] is above 100 µM; in [2], above 100 µM; in test [3], 29.4 µM; in test [4] it was above 100 µM; in test [5], above 100 µM; in test [6], 50.4 µM. For the same compound, the TGI is above 100 µM in test [7], 6.67 µM in test [8], above 63.6 µM in test [9] and above 62.1 µM in test [10].
As to `O=C(CO[N+](=O)[O-])OCC(=O)c1ccccc1`, the TGI in [1], in test [2], in test [3], in test [4], in test [5] and in test [6] was above 100 µM each time. Besides, the TGI in test [7], in [8], in test [9] and in test [10] was above 100 µM throughout.
For `NC1=NN(c2ccccc2)C(=O)C1/C(=N\NC(=O)c1cc2ccccc2cc1O)C(=O)Nc1ccc(Cl)cc1` (stereo not drawn), the TGI in test [1] is above 100 µM; in test [2], above 100 µM; in test [3], 69.3 µM; in [4], above 100 µM; in test [5] it was above 100 µM; in [6], above 100 µM. Further, the TGI in test [7] was 14.7 µM; in [8], 80.9 µM; in [9], above 100 µM; in test [10], above 100 µM.
As to `CC(=O)Nc1ccc(C(=O)COc2cccc(/C=C3\CCc4ccccc4C3=O)c2)cc1`, the GI50 was 11.2 µM in test [1]; 20.3 µM in test [2]; 19.2 µM in [3]; 24 µM in test [4]; 18.7 µM in [5]; 28.2 µM in test [6]. Also, the GI50 is 4.4 µM in test [7], 21.1 µM in [8], 21 µM in test [9] and 30.1 µM in [10]. Further, the TGI in [1] is 32 µM; in test [2] it was 37.8 µM; in test [3], 40.2 µM; in test [4], 60.3 µM; in test [5], above 100 µM; in [6], above 100 µM. In addition, the TGI in test [7] was 22.7 µM; in [8], 99.2 µM; in test [9] it was 77.1 µM; in test [10] it was above 100 µM.
In the case of `O=C(Nc1cccc(C(F)(F)F)c1)Nc1ccc(OCc2nnc(-c3ccccc3)o2)c(F)c1`, the GI50 in test [1] is 2.92 µM; in test [2], 10.3 µM; in test [3], 5.1 µM; in [4], 3.4 µM; in test [5] it was 5.08 µM; in [6], 20.5 µM. Also, the GI50 in test [7] is 2.58 µM; in [8], 5.5 µM; in test [9] it was 6.68 µM; in [10], 5.57 µM. For the same compound, the TGI in [1] was 54.3 µM; in test [2], 66.5 µM; in test [3] it was 23.2 µM; in test [4] it was 18 µM; in test [5] it was 58.5 µM; in test [6], 68.9 µM. Moreover, the TGI in [7] was 6.4 µM; in test [8], 26.6 µM; in test [9], 37.4 µM; in test [10], 27.3 µM.
For the compound `CC(C)=NO.CC(C)=NO.CC(C)=NO.CC(C)=NO.[Ti]`, the GI50 in test [1], in test [2], in test [3], in [4], in test [5] and in test [6] was above 100 µM each time. Also, the GI50 in test [7], in [8], in test [9] and in test [10] was above 100 µM each time. The TGI in test [1], in test [2], in [3], in [4], in test [5] and in test [6] was above 100 µM each time. Also, the TGI in test [7], in test [8], in test [9] and in [10] was above 100 µM each time.
Turning to `COC(=O)/C(=C/c1ccc(OC)cc1)c1cc(OC)c(OC)c(OC)c1`, the TGI in [1] is above 100 µM; in [2] it was above 100 µM; in [3] it was 6.96 µM; in test [4], above 51.2 µM; in [5], above 74.9 µM; in [6], above 100 µM. Moreover, the TGI in [7] is 3.06 µM; in [8] it was above 100 µM; in test [9] it was above 100 µM; in [10] it was 40.4 µM.
On to `COC(=O)c1ccccc1NCc1cc(O)ccc1O`, for which the TGI in test [1] was 41.1 µM; in test [2], 35.4 µM; in test [3], 34.9 µM; in [4], above 71.4 µM; in test [5], 44.2 µM; in test [6], above 57.6 µM. Moreover, the TGI in [7] is above 42.8 µM; in test [8] it was above 63.4 µM; in test [9], 44.6 µM; in test [10], above 100 µM.
In the case of `CN1OC(CO)CC12C1CC3CC(C1)CC2C3` (stereo not drawn), the TGI in test [1], in test [2], in [3], in [4], in test [5] and in [6] was above 100 µM each time. Moreover, the TGI in [7], in [8], in test [9] and in test [10] was above 100 µM in each case.
Consider `CCCNc1ncnc2c1cnn2C`, for which the TGI in [1], in test [2], in [3], in [4], in test [5] and in test [6] was above 100 µM throughout. Moreover, the TGI in test [7], in [8], in [9] and in [10] was above 100 µM each time.
Consider `N#Cc1c(N/N=C/c2c(Cl)cccc2Cl)nc(N)nc1N1CCCC1`, for which the GI50 in test [1] is 0.645 µM; in test [2], 16.4 µM; in test [3], 1.77 µM; in test [4], 1.7 µM; in test [5], 1.96 µM; in test [6], 5.9 µM. Besides, the GI50 in [7] was 3.4 µM; in [8] it was 0.783 µM; in test [9] it was 1.29 µM; in [10], 5.12 µM. Further, the TGI in test [1] is 20 µM; in [2] it was above 100 µM; in [3], 5.58 µM; in test [4] it was above 100 µM; in [5], above 100 µM; in test [6] it was above 100 µM. Also, the TGI in test [7] was 7.04 µM; in test [8] it was 97.3 µM; in test [9], above 100 µM; in test [10] it was above 100 µM.
Consider `Cc1c(-c2ccc(N3CCc4cccc(C(=O)Nc5nc6ccccc6s5)c4C3)nc2C(=O)O)cnn1CC12CC3CC(CC(C3)C1)C2`, for which the GI50 in [1] is 6.08 µM; in [2], 6.27 µM; in test [3], 6.51 µM; in [4], 10.1 µM; in test [5], 7.79 µM; in test [6], 2.99 µM. Besides, the GI50 in [7] was 3.43 µM; in [8] it was 12.6 µM; in test [9], 8.35 µM; in test [10] it was 6.99 µM. For the same compound, the TGI in [1] amounted to 19.9 µM; in test [2] it was 19.3 µM; in test [3] it was 21.8 µM; in test [4], 27.8 µM; in [5] it was 25.3 µM; in [6], 13.5 µM. The TGI in [7] is 18.7 µM; in test [8] it was 31.5 µM; in test [9], 23.4 µM; in test [10], 21.3 µM.
For the compound `Cn1c(=O)c(-c2c(Cl)cccc2Cl)cc2cnc(Nc3ccc(N4CCOCC4)cc3)nc21`, the GI50 in [1] was 0.0944 µM; in [2] it was 0.675 µM; in test [3], below 0.0451 µM; in test [4], below 0.01 µM; in [5] it was below 0.0467 µM; in test [7] it was 0.0137 µM. Moreover, the GI50 in [9] and in test [10] was below 0.01 µM in each case. Besides, the TGI is above 100 µM in [1]; above 100 µM in test [2]; 0.113 µM in test [3]; 0.124 µM in [4]; 1.17 µM in test [5]; 1.24 µM in [6]. Besides, the TGI is 0.216 µM in [7], 1.33 µM in [8], 0.0806 µM in test [9] and above 100 µM in [10].
